Results as given in patent US11970474B2, “Substituted benzodiazoles and use thereof in therapy” (THOMAS HELLEDAYS STIFTELSE FÖR MEDICINSK FORSKNING, priority 2018, dated 2024).
Read-outs that look alike come from different tables or passages of the source.

Tests used:
CCL2 = assay: Mouse CCL2 assay in MLE12 cells; type: cell-based; details: Mus musculus, MLE12, 30 h
From the text: Cisbio mouse CCL2 assay is intended for the quantitative measurement of CCL2 in supernatant using HTRF® technology. The assay is compatible with mouse samples, and is highly specific for CCL2. CCL2 is detected in a sandwich assay format using 2 different specific antibodies, one labeled with Cryptate (donor) and the second with d2 (acceptor). The detection principle is based on HTRF® technology. When the labelled antibodies bind to the same antigen, the excitation of the donor with a light source (laser or flash lamp) triggers a Fluorescence Resonance Energy Transfer (FRET) towards the acceptor, which in turn fluoresces at a specific wavelength (665 nm). The two antibodies bind to the CCL2 present in the sample, thereby generating FRET. Signal intensity is proportional to the number of antigen-antibody complexes formed and therefore to the CCL2 concentration. • Materials: • Cells: MLE12 (Mouse Lung Epithelial cells, SV40 transformed) • Medium: DMEM/F12 (Gibco #11330057), FBS 5% (Gibco #10500064), Pen/Strep 50 U/50 μg/ml (Gibco #15070063) • Cell plates: 384-well, black/clear, TC-treated (Corning #3764) • Source plate: Labcyte LDV 384 (Labcyte #LP-0200) • Compound dilution plate: V-bottom 384-well PP plate (Greiner #781280) • Compounds: 10 mM stocks in DMSO • HTRF plates: 384-well, white, half area, non-binding (Costar #3824) • Mouse CCL2 kit: Cisbio 62MCCL2PEH • Other reagents: Trypsin/EDTA 10× (Gibco #15400054), PBS (Gibco #14190169), Resazurin (Sigma-Aldrich #199303), 1 mg/ml in PBS, TNF-α 200 μg/ml in PBS (Peprotech #300-01A) • Instruments: • Echo liquid handler (Labcyte) • Multidrop Combi (Thermo Scientific) • Sense plate reader (Hidex) Compound Handling:
(§1) Stock solutions (10 mM in DMSO) of compounds were dispensed in V-bottom 384-well plates and the following dilutions were prepared: 10 mM and 0.05 mM. The dilutions were transferred to the source plate. Duplicate 6 points dose-response curves of compounds were nano-dispensed in cell plates (CCL2 assay) and in parallel, 11 points DR curves in duplicates were nano-dispensed for the viability assay. The plates were heat sealed and kept at RT until use.
(§2) MLE12 cells in flasks were washed once with PBS, detached with Trypsin/EDTA, resuspended in fresh medium and counted. Cells were diluted to 3×10^5 cells/ml and seeded with Multidrop Combi in cell plates pre-dispensed with compounds, 25 μl/well (7500 cells/well). The plates were placed, one by one, in a CO2-incubator at 37° C. for 1 hour after which 25 μl/well of TNF-α (final concentration 20 ng/ml) were added. The plates were transferred back to the CO2-incubator placed in a plastic box with wet tissue in the bottom, to avoid evaporation, for 30 hours.
After 30 hours incubation, the plates were spun down 5 minutes at 400 g, and 16 μl/well of the supernatants were transferred to the assay plate. A mCCL2 standard curve was prepared according to the kit protocol and 16 μl/well of the standards were also added to the assay plate.
The anti-CCL2 antibody mix was prepared according to the kit protocol, and 4 μl/well were added to the assay plate. The plate was sealed and incubated over night at RT. After incubation the plate was read in Sense plate reader with Time-resolved FRET protocol (Ex330 nm/Em 620 and 665 nm). After data reduction, the delta ratios were imported to an excel template where the IC50 values were calculated.

OGG1 = OGG1 (Homo sapiens (Human), UniProt O15527); assay: In vitro OGG1 activity assay; type: biochemical; details: 800 pM OGG1 enzyme, 2 nM human APEX1, 10 nM 8-oxoA:C substrate
Chain of OGG1 (O15527 whole entry): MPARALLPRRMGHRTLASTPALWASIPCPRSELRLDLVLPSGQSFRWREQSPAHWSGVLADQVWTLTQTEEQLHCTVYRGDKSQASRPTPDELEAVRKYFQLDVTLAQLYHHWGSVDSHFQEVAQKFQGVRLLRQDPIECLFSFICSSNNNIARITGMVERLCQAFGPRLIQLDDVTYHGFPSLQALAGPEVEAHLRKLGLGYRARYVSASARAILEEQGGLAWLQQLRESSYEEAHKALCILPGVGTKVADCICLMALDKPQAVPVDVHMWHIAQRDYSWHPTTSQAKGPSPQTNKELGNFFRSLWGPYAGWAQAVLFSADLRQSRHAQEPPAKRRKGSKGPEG
Procedure, shortened: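 Fluorescence-release assay on a duplex oligonucleotide carrying an OGG1 substrate base beside a fluorophore, quenched from the complementary strand. Excess APEX1 cleaves the abasic site left by base excision, melting the duplex and unquenching the fluorophore. Compounds in DMSO were dispensed before enzyme and substrate, and fluorescein signal was read.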

MLE12 cells = assay: Cell viability assay in MLE12 cells (resazurin); type: cell-based, mouse; details: Mus musculus, TNF-α 20 ng/ml, resazurin added after 24 hours culture
Method: as §1, §2
After 24 hours culture, resazurin reagent (stock 1 mg/ml in PBS) diluted 1:17 in PBS was added with Multidrop Combi, 10 μl/well, and plates were incubated for 6 hours. Plates were read in Sense plate reader with resorufin protocol (ex544 nm/em595 nm). The results were imported to an excel template where the EC50 values were calculated using XLfit.

[1] = MLE12 cells, TNF-α 20 ng/ml, supernatant after 30 hours, HTRF, read-out: CCL2 (EC50)

Row | EC50 (CCL2; [1]) [nM] | IC50 (OGG1) [µM] | SMILES | IC50 (MLE12 cells; MLE12, 24 h) [µM] | EC50 (CCL2; read-out: CCL2 (EC50, nM)) [nM] | IC50 (MLE12 cells) [µM]
1 | 14100 | 0.071 | COc1cc(NC(=O)[C@H]2CC[C@@H](n3c(=O)[nH]c4c(Br)cccc43)CC2)ccc1Cl [Example 122, (Cis)-4-(4-bromo-2-oxo-2,3-dihydro-1H-1,3-benzodiazol-1-yl)-N-(4-chloro-3-methoxyphenyl)cyclohexane-1-carboxamide] | 4.5 |  | 
2 | > 33000 | 0.0181 | COc1cc(NC(=O)[C@H]2CC[C@@H](n3c(=O)[nH]c4c(NC(=O)[C@@H]5C[C@@H](O)CN5)cccc43)CC2)ccc1C [Example 286, (2S,4R)-4-Hydroxy-N-{2-oxo-1-[cis-4-[(3-methoxy-4-methylphenyl)carbamoyl]cyclohexyl]-2,3-dihydro-1H-1,3-benzodiazol-4-yl}pyrrolidine-2-carboxamide] | 20.3 |  | 
3 | 30800 | 0.00807 | CNCCN(C)c1cccc2c1[nH]c(=O)n2[C@H]1CC[C@@H](C(=O)Nc2ccc(C)c(OC)c2)CC1 [Example 297, Cis-N-(3-methoxy-4-methylphenyl)-4-(4-{methyl[2-(methylamino)ethyl]amino}-2-oxo-2,3-dihydro-1H-1,3-benzodiazol-1-yl)cyclohexane-1-carboxamide] | 28.9 |  | 
4 | 27800 | 0.00326 | CNCCOc1cccc2c1[nH]c(=O)n2[C@H]1CC[C@@H](C(=O)Nc2ccc(C)c(OC)c2)CC1 [Example 309, Cis-N-(3-methoxy-4-methylphenyl)-4-{4-[2-(methylamino)ethoxy]-2-oxo-2,3-dihydro-1H-1,3-benzodiazol-1-yl}cyclohexane-1-carboxamide] | 15.6 |  | 
5 | > 33000 | 2.76 | COCCOc1cccc2c1[nH]c(=O)n2[C@H]1CC[C@@H](C(=O)Nc2ccc(C)c(OC)c2)CC1 [Example 245, Cis-N-(3-methoxy-4-methylphenyl)-4-[4-(2-methoxyethoxy)-2-oxo-2,3-dihydro-1H-1,3-benzodiazol-1-yl]cyclohexane-1-carboxamide] | 12.5 |  | 
6 | 33500 | 0.0557 | O=c1[nH]c2c(Br)cccc2n1[C@H]1CC[C@@H](C(=O)Nc2ccc(O)cc2)CC1 [Example 191, Cis-4-(4-bromo-2-oxo-2,3-dihydro-1H-1,3-benzodiazol-1-yl)-N-(4-hydroxyphenyl)cyclohexane-1-carboxamide] | 29.8 |  | 
7 | 27500 | 0.0179 | COc1cc(NC(=O)[C@H]2CC[C@@H](n3c(=O)[nH]c4c(O)cccc43)CC2)ccc1C [Example 227, Cis-4-(4-hydroxy-2-oxo-2,3-dihydro-1H-1,3-benzodiazol-1-yl)-N-(3-methoxy-4-methylphenyl)cyclohexane-1-carboxamide] | 16.5 |  | 
8 | 16800 | 0.325 | O=c1[nH]c2c(Br)cccc2n1[C@H]1CC[C@@H](C(=O)Nc2ccc(Cl)nc2)CC1 [Example 184, Cis-4-(4-bromo-2-oxo-2,3-dihydro-1H-1,3-benzodiazol-1-yl)-N-(6-chloropyridin-3-yl)cyclohexane-1-carboxamide] | 7.86 |  | 
9 | 6480 | 0.471 | CCNC(=O)c1cnn(-c2cccc3c2[nH]c(=O)n3C2CCN(C(=O)Nc3ccc(I)cc3)CC2)c1 [Example 87, 4-{4-[4-(Ethylcarbamoyl)-1H-pyrazol-1-yl]-2-oxo-2,3-dihydro-1H-1,3-benzodiazol-1-yl}-N-(4-iodophenyl)piperidine-1-carboxamide] | 5.25 |  | 
10 | 52700 | 0.848 | O=C(Nc1ccc(I)cc1)N1CCC(n2c(=O)[nH]c3c(-n4cccn4)cccc32)CC1 [Example 22, N-(4-iodophenyl)-4-[2-oxo-4-(1H-pyrazol-1-yl)-2,3-dihydro-1H-1,3-benzodiazol-1-yl]piperidine-1-carboxamide] | 13.8 |  | 
11 | 50700 |  | O=C(Nc1ccc(I)cc1)N1CCC(n2c(=O)[nH]c3c(-n4cc(Br)cn4)cccc32)CC1 [Example 41, 4-[4-(4-Bromo-1H-pyrazol-1-yl)-2-oxo-2,3-dihydro-1H-1,3-benzodiazol-1-yl]-N-(4-iodophenyl)piperidine-1-carboxamide] | 16.6 |  | 
12 | 15400 |  | O=C(Nc1ccc(I)cc1)N1CCC(n2c(=O)[nH]c3cc(Cl)ccc32)CC1 [Example 2, 4-(5-Chloro-2-oxo-2,3-dihydro-1H-1,3-benzodiazol-1-yl)-N-(4-iodophenyl) piperidine-1-carboxamide] | 10.3 |  | 
13 | 33000 |  | Nc1cccc2c1[nH]c(=O)n2C1CCN(C(=O)Nc2ccc(I)cc2)CC1 [Example 20, 4-(4-Amino-2-oxo-2,3-dihydro-1H-1,3-benzodiazol-1-yl)-N-(4-iodophenyl)piperidine-1-carboxamide] | 11.5 |  | 
14 | 22600 |  | COc1cc(NC(=O)[C@H]2CC[C@@H](n3c(=O)[nH]c4c(Br)cccc43)CC2)ccc1F [Example 130, (Cis)-4-(4-bromo-2-oxo-2,3-dihydro-1H-1,3-benzodiazol-1-yl)-N-(4-fluoro-3-methoxyphenyl)cyclohexane-1-carboxamide] | 6.36 |  | 
15 | 13000 |  | O=c1[nH]c2c(Br)cccc2n1[C@H]1CC[C@@H](C(=O)Nc2ccc(Cl)c(F)c2)CC1 [Example 121, (Cis)-4-(4-bromo-2-oxo-2,3-dihydro-1H-1,3-benzodiazol-1-yl)-N-(4-chloro-3-fluorophenyl)cyclohexane-1-carboxamide] | 4.86 |  | 
16 | 15000 |  | O=C(Nc1ccc(I)cc1)N1CCC(n2c(=O)[nH]c3c(-c4cccnc4)cccc32)CC1 [Example 26, N-(4-iodophenyl)-4-[2-oxo-4-(pyridin-3-yl)-2,3-dihydro-1H-1,3-benzodiazol-1-yl]piperidine-1-carboxamide] | 7.7 |  | 
17 | 31200 |  | Cc1ccc(NC(=O)[C@H]2CC[C@@H](n3c(=O)[nH]c4c(Br)cccc43)CC2)cc1C [Example 124, (Cis)-4-(4-bromo-2-oxo-2,3-dihydro-1H-1,3-benzodiazol-1-yl)-N-(3,4-dimethylphenyl)cyclohexane-1-carboxamide] | 11.5 |  | 
18 | 34700 |  | COc1cc(NC(=O)[C@H]2CC[C@@H](n3c(=O)[nH]c4c(N)cccc43)CC2)ccc1C [Example 249, Cis-4-(4-amino-2-oxo-2,3-dihydro-1H-1,3-benzodiazol-1-yl)-N-(3-methoxy-4-methylphenyl)cyclohexane-1-carboxamide] | 15.7 |  | 
19 |  | 6.32 | O=C(Nc1ccc(Cl)c(Cl)c1)N1CCC(n2c(=O)[nH]c3c(-c4ccc(C(=O)C(F)(F)F)cc4)cccc32)CC1 [Example 40, N-(3,4-dichlorophenyl)-4-{2-oxo-4-[4-(2,2,2-trifluoroacetyl)phenyl]-2,3-dihydro-1H-1,3-benzodiazol-1-yl}piperidine-1-carboxamide] |  |  | 

Row | SMILES | EC50 (CCL2; [1]) [nM] | IC50 (OGG1) [µM] | IC50 (MLE12 cells; MLE12, 24 h) [µM] | EC50 (CCL2; read-out: CCL2 (EC50, nM)) [nM] | IC50 (MLE12 cells) [µM]
20 | O=C(Nc1ccc(Cl)c(F)c1)N1C2CCC1CC(n1c(=O)[nH]c3c(Br)cccc31)C2 (stereo not drawn) [Example 86, 3-(4-Bromo-2-oxo-2,3-dihydro-1H-1,3-benzodiazol-1-yl)-N-(4-chloro-3-fluorophenyl)-(endo)-8-azabicyclo[3.2.1]octane-8-carboxamide] |  | 0.059 |  | 19400 | 13.7
